Measurements taken from paper PMC7753147, “High-throughput determination of protein affinities using unmodified peptide libraries in nanomolar scale” (iScience, 2020).

Experiments:
gephE = assay: µSPOT peptide microarray binding assay with recombinant gephE; conditions: µSPOT peptide microarray, GlyRβ full positional scan, recombinant gephE; intensity normalised to wild-type sequence DLRSNDFSIVGSLPR (=1)
native geph = assay: µSPOT peptide microarray binding assay with native geph from mouse brain lysate; conditions: µSPOT peptide microarray, GlyRβ full positional scan, native geph from mouse brain lysate; intensity normalised to wild-type sequence DLRSNDFSIVGSLPR (=1)
FL-geph = assay: µSPOT peptide microarray binding assay with full-length geph; conditions: µSPOT peptide microarray, GlyRβ full positional scan, intensity normalised to wild-type sequence DLRSNDFSIVGSLPR (=1)

| Sequence | gephE Binding Intensity [norm.] (gephE) | Native geph Binding Intensity [norm.] (native geph) | Fl-geph Binding Intensity [norm.] (FL-geph) |
| --- | --- | --- | --- |
| DLRSPDFSIVGSLPR [GlyRβ_Full_Positional_Scan_085] | 0.95 | 0.86 | 0.85 |
| DLRSQDFSIVGSLPR [GlyRβ_Full_Positional_Scan_100] | 0.96 | 0.97 | 1.01 |
| DLRSRDFSIVGSLPR [GlyRβ_Full_Positional_Scan_092] | 0.89 | 0.62 | 0.77 |
| DLRSSDFSIVGSLPR [GlyRβ_Full_Positional_Scan_095] | 0.99 | 0.85 | 0.95 |
| DLRSTDFSIVGSLPR [GlyRβ_Full_Positional_Scan_096] | 1.06 | 0.73 | 0.78 |
| DLRSVDFSIVGSLPR [GlyRβ_Full_Positional_Scan_086] | 0.84 | 0.72 | 0.83 |
| DLRSWDFSIVGSLPR [GlyRβ_Full_Positional_Scan_088] | 0.86 | 0.47 | 0.66 |
| DLRSYDFSIVGSLPR [GlyRβ_Full_Positional_Scan_089] | 0.89 | 0.68 | 0.76 |
| DLRTNDFSIVGSLPR [GlyRβ_Full_Positional_Scan_076] | 0.93 | 1.12 | 1.09 |
| DLRVNDFSIVGSLPR [GlyRβ_Full_Positional_Scan_066] | 0.91 | 0.98 | 0.9 |
| DLRWNDFSIVGSLPR [GlyRβ_Full_Positional_Scan_068] | 0.92 | 0.95 | 0.81 |
| DLRYNDFSIVGSLPR [GlyRβ_Full_Positional_Scan_069] | 0.96 | 0.93 | 0.83 |
| DLSSNDFSIVGSLPR [GlyRβ_Full_Positional_Scan_055] | 0.87 | 1.35 | 1.4 |
| DLTSNDFSIVGSLPR [GlyRβ_Full_Positional_Scan_056] | 0.96 | 1.38 | 1.18 |
| DLVSNDFSIVGSLPR [GlyRβ_Full_Positional_Scan_046] | 0.94 | 1.47 | 1.27 |
| DLWSNDFSIVGSLPR [GlyRβ_Full_Positional_Scan_048] | 0.86 | 1.17 | 1.13 |
| DLYSNDFSIVGSLPR [GlyRβ_Full_Positional_Scan_049] | 0.96 | 1.37 | 1.03 |
| DMRSNDFSIVGSLPR [GlyRβ_Full_Positional_Scan_038] | 0.97 | 1.09 | 0.97 |
| DNRSNDFSIVGSLPR [GlyRβ_Full_Positional_Scan_039] | 0.96 | 1.18 | 0.98 |
| DPRSNDFSIVGSLPR [GlyRβ_Full_Positional_Scan_025] | 1.01 | 1.02 | 1.01 |
| DQRSNDFSIVGSLPR [GlyRβ_Full_Positional_Scan_040] | 0.96 | 1.16 | 0.92 |
| DRRSNDFSIVGSLPR [GlyRβ_Full_Positional_Scan_032] | 0.9 | 0.66 | 0.96 |
| DSRSNDFSIVGSLPR [GlyRβ_Full_Positional_Scan_035] | 0.97 | 0.97 | 0.97 |
| DTRSNDFSIVGSLPR [GlyRβ_Full_Positional_Scan_036] | 0.94 | 1.09 | 0.97 |
| DVRSNDFSIVGSLPR [GlyRβ_Full_Positional_Scan_026] | 1.03 | 0.98 | 1.05 |
| DWRSNDFSIVGSLPR [GlyRβ_Full_Positional_Scan_028] | 0.8 | 0.6 | 0.82 |
| DYRSNDFSIVGSLPR [GlyRβ_Full_Positional_Scan_029] | 0.95 | 0.73 | 0.84 |

The next lines start with the values.

| gephE Binding Intensity [norm.] (gephE) | Native geph Binding Intensity [norm.] (native geph) | Fl-geph Binding Intensity [norm.] (FL-geph) | Sequence |
| --- | --- | --- | --- |
| 0.51 | 0.35 | 0.46 | DLRSNDSSIVGSLPR [GlyRβ_Full_Positional_Scan_135, GlyR β 414-428 variant F420S] |
| 0.47 | 0.36 | 0.51 | DLRSNDTSIVGSLPR [GlyRβ_Full_Positional_Scan_136, GlyR β 414-428 variant F420T] |
| 0.52 | 0.38 | 0.76 | DLRSNDVSIVGSLPR [GlyRβ_Full_Positional_Scan_126, GlyR β 414-428 variant F420V] |
| 0.96 | 0.97 | 0.94 | DLRSNEFSIVGSLPR [GlyRβ_Full_Positional_Scan_111] |
| 0.74 | 0.34 | 0.78 | DLRSNFFSIVGSLPR [GlyRβ_Full_Positional_Scan_107] |
| 1 | 0.65 | 1.07 | DLRSNGFSIVGSLPR [GlyRβ_Full_Positional_Scan_102] |
| 0.86 | 0.48 | 0.85 | DLRSNHFSIVGSLPR [GlyRβ_Full_Positional_Scan_113] |
| 0.79 | 0.35 | 0.97 | DLRSNIFSIVGSLPR [GlyRβ_Full_Positional_Scan_103] |
| 0.8 | 0.37 | 0.98 | DLRSNKFSIVGSLPR [GlyRβ_Full_Positional_Scan_114] |
| 0.78 | 0.37 | 0.9 | DLRSNLFSIVGSLPR [GlyRβ_Full_Positional_Scan_104] |
| 0.85 | 0.62 | 0.84 | DLRSNMFSIVGSLPR [GlyRβ_Full_Positional_Scan_118] |
| 0.89 | 0.57 | 0.69 | DLRSNNFSIVGSLPR [GlyRβ_Full_Positional_Scan_119] |
| 0.89 | 0.58 | 0.85 | DLRSNPFSIVGSLPR [GlyRβ_Full_Positional_Scan_105] |
| 0.95 | 0.53 | 0.78 | DLRSNQFSIVGSLPR [GlyRβ_Full_Positional_Scan_120] |
| 0.84 | 0.36 | 0.86 | DLRSNRFSIVGSLPR [GlyRβ_Full_Positional_Scan_112] |
| 0.89 | 0.75 | 0.92 | DLRSNSFSIVGSLPR [GlyRβ_Full_Positional_Scan_115] |
| 0.85 | 0.75 | 0.97 | DLRSNTFSIVGSLPR [GlyRβ_Full_Positional_Scan_116] |
| 0.81 | 0.58 | 0.95 | DLRSNVFSIVGSLPR [GlyRβ_Full_Positional_Scan_106] |
| 0.79 | 0.32 | 0.65 | DLRSNWFSIVGSLPR [GlyRβ_Full_Positional_Scan_108] |
| 0.82 | 0.38 | 0.7 | DLRSNYFSIVGSLPR [GlyRβ_Full_Positional_Scan_109] |
